According to PMC11012793, “Mulberry Leaf Compounds and Gut Microbiota in Alzheimer’s Disease and Diabetes: A Study Using Network Pharmacology, Molecular Dynamics Simulation, and Cellular Assays” (International Journal of Molecular Sciences, 2024):

Target: T1, protein tyrosine phosphatase 1B (PTP1B) (Homo sapiens, UniProt P18031)
T1 construct: gene PTPN1; catalytic domain (Met1-Glu298) of PTP1B (ΔPTP1B)
T1 sequence (P18031 1-298): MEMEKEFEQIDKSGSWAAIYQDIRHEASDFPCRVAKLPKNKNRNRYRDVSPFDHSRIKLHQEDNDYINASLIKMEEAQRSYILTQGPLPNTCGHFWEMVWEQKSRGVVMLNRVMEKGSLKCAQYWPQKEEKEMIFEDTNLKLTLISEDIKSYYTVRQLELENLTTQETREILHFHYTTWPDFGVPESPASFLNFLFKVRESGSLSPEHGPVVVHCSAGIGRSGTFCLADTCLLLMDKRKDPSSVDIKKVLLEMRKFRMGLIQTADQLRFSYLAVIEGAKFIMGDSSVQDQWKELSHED
Test: p-NPP phosphatase assay with purified recombinant PTP1B catalytic domain, absorbance at […] nm
Type: biochemical

`O=c1c(O)c(-c2ccc(O)cc2)oc2cc(O)cc(O)c12` [kaempferol] showed an IC50 of 279 µM.
